Data set [1] has as its system relapsed/refractory (R/R) B-NHL. The experiment in a line: epcoritamab monotherapy clinical trial in R/R B-NHL (NCT03625037). The conditions noted are these: R/R B-NHL patients, preliminary data. It counts as in vivo, human. The source says: Epcoritamab as monotherapy is currently in a clinical trial for the treatment of relapsed/refractory (R/R) B-NHL (ClinicalTrials.gov Identifier: NCT03625037).

Data set [2] deals with CD20-expressing Raji-luc tumor cells. The note with it: even in the presence of an excess of rituximab variant with inert Fc domain (IgG1-RTX-FEAR); cited from earlier work.
Data set [3] relates to T cells isolated from human healthy donor buffy coats. The data set is described as follows: in vitro T-cell activation assay (flow cytometry; CD69, CD25, CD107/LAMP-1). It counts as cell-based. The protocol:
(§1) Bendamustine, an alkylating agent that causes intra- and inter-strand crosslinks between DNA bases, is approved for treatment of CLL and indolent B-NHL. This experiment was performed to determine whether bendamustine impacts the anti-tumor activity of epcoritamab by using in vitro T-cell activation and cytotoxicity assays.
(§2) Briefly, Human Burkitt lymphoma (Raji [ATCC, cat. no. CCL-86]) and DLBCL (SU-DHL-4 [Deutsche Sammlung von Mikroorganismen und Zellkulturen—DSMZ, cat. no. ACC-495]) cell lines were used as target cells. Cells were cultured in culture medium (RPMI 1640 with HEPES and L-Glutamine supplemented with 10% heat-inactivated donor bovine serum with iron, and 1% [v/v] penicillin/streptomycin) to which 2 mM L-glutamine, and 1 mM sodium pyruvate were added, at 37° C., 5% CO2. T cells, which were isolated from human healthy donor buffy coats by negative selection using the RosetteSep™ Human T Cell Enrichment Cocktail (Stemcell Technologies) followed by density centrifugation over a Ficoll gradient, both according to the manufacturer's instructions, were used as effector cells. Isolated cells were washed twice in phosphate buffered saline (PBS) and counted using acridine orange/propidium iodide (AO/PI) viability staining solution (Nexcelom Bioscience) on a Cellometer® Auto 2000 Cell Viability Counter. T cells (100,000 cells/well) were incubated with Raji or SU-DHL-4 cells (50,000 cells/well) in culture medium in the presence of epcoritamab (0.033 pg/mL-333 ng/mL) and bendamustine (0-20 μM) at 37° C., 5% CO2 for 48 hours. B-cell viability and T-cell activation were measured by flow cytometry (count of CD22-positive cells; expression of the activation markers CD69, CD25, and CD107 [LAMP-1] on CD4+ and CD8+ T cells). The percentage cytotoxicity was calculated as follows: […]

For data set [4], the system named is previously untreated follicular lymphoma. The experiment in a line: Phase 1b study of epcoritamab in combination with rituximab and bendamustine (BR). The data set is classed as in vivo. On the procedure:
The Part 1 dose escalation assesses the initial safety, tolerability, and clinical activity of epcoritamab in combination with BR. Epcoritamab is initially be administered in combination with BR in a 3-subject cohort. DLTs are evaluated during the first 28 days. Depending on the number of DLTs observed in the initial 3 subjects, administration of epcoritamab (full dose: 48 mg or 24 mg) in combination with BR is performed in an additional 3 patients as shown in FIG. 3.
In Part 2, epcoritamab is administered (with the dosing regimen determined in the dose escalation part) in combination with BR. The expansion will include 20 subjects in order to evaluate the preliminary clinical activity of the combination, in addition to safety, tolerability, PK, pharmacodynamic, and immunogenicity data.
A step-up dosing method is used for epcoritamab to mitigate the potential for CRS: priming dose (0.16 mg) on cycle 1 day 1, followed by intermediate dose (0.8 mg) on cycle 1 day 8, full dose (24 mg or 48 mg) on cycle 1 day 15 and day 22, and full dose in subsequent cycles. […] Bendamustine (90 mg/m^2) is administered intravenously daily on days 1 and 2 of cycles 1-6. If bendamustine is started later than day 1 of a cycle, then planned day 1 of the next cycle is calculated from the day when bendamustine was actually initiated in order to maintain the regular cycle interval of 28 days. […]
Safety is assessed by measuring adverse events, laboratory test results, ECGs, vital sign measurements, physical examination findings, and ECOG performance status. Also assessed are immune effector cell-associated neurotoxicity syndrome (e.g., as described by Lee et al., Biol BloodMarrow Transplant 2019; 25:625-638), constitutional symptoms (B symptoms), tumor flare reaction, and survival.

The subject of data set [5] is primary DLBCL and follicular lymphoma patient biopsies. The conditions noted are these: cited from earlier work.
In data set [6] the test system is Human Burkitt lymphoma Raji cells. It counts as cell-based. The conditions noted are these: no epcoritamab, bendamustine 0-20 μM, 48 hours. The protocol: as §1
as §2, with “T cells, which were isolated from human healthy donor buffy coats by negative selection using the RosetteSep™ Human T Cell Enrichment Cocktail (Stemcell Technologies) followed by density centrifugation over a Ficoll gradient, both according to the manufacturer's instructions, were used as effector cells.” left out, “T cells (100,000 cells/well) were incubated with Raji or SU-DHL-4 cells (50,000 cells/well) in culture medium in the presence of epcoritamab (0.033 pg/mL-333 ng/mL) and bendamustine (0-20 μM) at 37° C., 5% CO2 for 48 hours.” left out

Another data set has as its system DLBCL SU-DHL-4 cells. The data set is classed as cell-based, human. The conditions noted are these: no epcoritamab, bendamustine 0-20 μM, 48 hours. On the procedure:
as §1
as §2, with “T cells, which were isolated from human healthy donor buffy coats by negative selection using the RosetteSep™ Human T Cell Enrichment Cocktail (Stemcell Technologies) followed by density centrifugation over a Ficoll gradient, both according to the manufacturer's instructions, were used as effector cells.” left out, “T cells (100,000 cells/well) were incubated with Raji or SU-DHL-4 cells (50,000 cells/well) in culture medium in the presence of epcoritamab (0.033 pg/mL-333 ng/mL) and bendamustine (0-20 μM) at 37° C., 5% CO2 for 48 hours.” left out

In data set [7] the test system is double-refractory follicular lymphoma. The note with it: Salles et al., Haematologica 2017; cited from earlier work.

As to “epcoritamab: IgG1 bispecific CD3×CD20 antibody, heavy/light chains SEQ ID NOs: 24, 25 and 26, 27; CAS 2134641-34-0”, the dose-limiting toxicities result in data set [1] is reported as “no dose-limiting toxicities reported”. In addition, the tolerated dose entry in data set [1] (up to at least 48 mg, including 60 mg) is reported as “at least 48 mg”. In addition, in data set [2], the “tumor growth in the xenograft model” value is given as “effectively reduce tumor growth”. For the same compound, the “epcoritamab-induced T-cell activation in the presence of bendamustine” value in data set [3] (bendamustine 0-20 μM, Raji or SU-DHL-4 cells, 48 hours) is on record as “not affected by the presence of bendamustine at all concentrations tested”. In addition, the “upregulation of T-cell activation markers on CD4+ T cells in the presence of bendamustine” value in data set [3] (bendamustine 0-20 μM, data not shown) is given as “not affected by bendamustine”. Also, the “activation of CD8+ T cells (upregulation of CD69, CD25 and LAMP-1)” value in data set [3] (in presence of Raji or SU-DHL-4 cells, epcoritamab 0.033 pg/mL-333 ng/mL, 48 hours) is on record as “concentration-dependent activation of CD8+ T cells”. In addition, the “responders in expansion phase” value in data set [4] (48 mg expansion, as of Sep. 8, 2021, preliminary, non-validated data) is recorded as 1. Besides, the “responders in dose escalation phase” value in data set [4] (as of Sep. 8, 2021, 17 patients dosed in total, preliminary, non-validated data) is 5. Also, in data set [4] (preliminary data), the “grade of all CRS events” value is “Grade ½”; the “most common related AEs” value is “CRS and Nausea”. The tumor cell kill entry in data set [5] (biopsy taken 2 weeks after administering the anti-CD20 antibody) was “up to 40%”. Also, the “T-cell-mediated cytotoxicity in patient biopsies” value in data set [5] is listed as “induced T-cell-mediated cytotoxicity”.

In the case of `Cn1c(CCCC(=O)O)nc2cc(N(CCCl)CCCl)ccc21` [bendamustine, 4-[5-[Bis(2-chloroethyl)amino]-1-methyl-iH-benzo[d]imidazole-2-yl]butanoic acid], the “number of viable B cells, bendamustine alone” value (in data set [6]; with DLBCL SU-DHL-4 cells) was “decreased the number of viable B cells in a dose dependent manner” in each case.

Turning to `CC[C@H](Nc1ncnc2[nH]cnc12)c1nc2cccc(F)c2c(=O)n1-c1ccccc1` [idelalisib], in data set [7], the “1-year PFS” value is 43% and the toxicities result is on record as “several toxicities leading to treatment discontinuation”.
